From patent publication US9023789B2, “Amylin analogs and pharmaceutical compositions thereof” (Novo Nordisk A/S, priority 2012, dated 2015)
Numbered stars: 1 amine (or outer) side, 2 acyl side, 3 side chain; on linkers, the order of the positions; unused ones are H or OH. Bridge positions count the residues as written; N and C are the ends. Side chains are listed from the residue outwards. Peptide text beside a SMILES is read from it. * marks the point of attachment. C20 diacid = O=C(O)CCCCCCCCCCCCCCCCCCC(=O)*; γGlu = O=C(O)[C@H](CCC(=O)[*:2])N[*:1]; AEEA = NCCOCCOCC(=O)O

Experiments:
[1] = tested on: Sprague Dawley (SD) rats; assay: ASSAY (I) efficacy testing on appetite (food intake) using an ad libitum fed rat model; assay type: in vivo; conditions: rat, 30 nmol/kg
Source text: Sprague Dawley (SD) rats from Taconic Europe, Denmark are used for the experiments. The rats have a body weight 200-250 g at the start of experiment. The rats arrive at least 10-14 days before start of experiment to allow acclimatization to experimental settings. During this period the animals are handled at least 2 times. After arrival rats are housed individually for one week in a reversed light/dark phase (meaning that lights are off during daytime and on during nighttime) for two weeks. Since rats are normally active and eat their major part of their daily food intake during the dark period, rats are dosed in the morning right before lights are turned off. This set-up results in the lowest data variation and highst test sensitivity. The experiment is conducted in the rats' home cages and rats have free access to food and water throughout the acclimatization period and the experiment period. Each dose of derivative is tested in a group of 5-8 rats. A vehicle group of 6-8 rats is included in each set of testing. Rats are dosed once according to body weight with a 0.01-3 mg/kg solution administered intraperitoneally (ip), orally (po) or subcutaneously (sc). The time of dosing is recorded for each group. After dosing, the rats are returned to their home cages, where they then have access to food and water. The food consumption is recorded individually continuously by online registration or manually every hour for 7 hours, and then after 24 h and sometimes 48 h. At the end of the experimental session, the animals are euthanized.
The individual data are recorded in Microsoft excel sheets. Outliers are excluded after applying the Grubbs statistical evaluation test for outliers, and the result is presented graphically using the GraphPad Prism program.

[2] = target: T1, human amylin 3(a) receptor (human calcitonin receptor + RAMP-3) in BHK570 cells (Homo sapiens, UniProt O60896+P30988); assay: ASSAY (II)a functional assay, human amylin receptor (CRE luciferase); assay type: cell-based; conditions: for EC50: human amylin receptor functional potency, assay (II), read-out: hAmylin-R funct. EC50
T1 construct: expressed in transfected cells
Outline: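 Read-out: CRE-driven luciferase luminescence, single photon counting, after 30 min at room temperature with LucLite. BHK cells expressed calcitonin receptor alone or with RAMP-3 (amylin 3(a)). Cells were stimulated 3 h at 37° C in DMEM, 10% FBS, 10 mM Hepes, pH 7.4.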

[3] = ASSAY (III) ThT fibrillation assay for physical stability; assay type: physicochemical
Outline: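 Physical stability scored by ThT fluorescence (444 nm excitation, 485 nm emission) tracked every 20 min during 37 °C incubation with 960 rpm shaking, ThT at 1 μM final. Values are replicate means with SD at chosen times; HPLC against pramlintide standard gives initial and post-assay soluble concentrations.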

[4] = hCTR funct. EC50 divided by hAmylin-R funct. EC50
[5] = hCTR funct. EC50 over hAmylin-R funct. EC50
[6] = human functional selectivity: hCTR funct. EC50 / hAmylin-R funct. EC50

T1 sequence (O60896 24-148): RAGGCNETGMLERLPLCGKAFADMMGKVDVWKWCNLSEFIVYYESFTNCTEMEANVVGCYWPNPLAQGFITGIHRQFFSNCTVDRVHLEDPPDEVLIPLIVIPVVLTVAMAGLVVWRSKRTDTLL
T1 sequence (P30988 25-474): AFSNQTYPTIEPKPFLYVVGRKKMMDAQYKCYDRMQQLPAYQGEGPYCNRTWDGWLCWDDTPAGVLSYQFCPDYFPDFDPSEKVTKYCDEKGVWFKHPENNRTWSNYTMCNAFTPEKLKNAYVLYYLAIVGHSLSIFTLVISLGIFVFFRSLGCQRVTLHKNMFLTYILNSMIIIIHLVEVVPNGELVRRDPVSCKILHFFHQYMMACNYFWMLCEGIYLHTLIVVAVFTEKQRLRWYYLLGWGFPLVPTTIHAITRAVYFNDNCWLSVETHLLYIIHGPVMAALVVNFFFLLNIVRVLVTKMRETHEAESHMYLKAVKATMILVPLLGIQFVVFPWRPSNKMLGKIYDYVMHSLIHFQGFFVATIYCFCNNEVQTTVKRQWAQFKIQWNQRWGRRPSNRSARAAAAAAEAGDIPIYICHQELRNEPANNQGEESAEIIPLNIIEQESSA

Ratio hCT/hAmylin funct. [2, 4]	Ratio hCT/hAmylin funct. [2, 5]	Ratio hCT/hAmylin funct. [2, 6]	ThT pH 4.0 lag time (h) [3] [h]	EC50 [2] [nM]	SMILES	Food intake reduction 0-24 h 30 nmol/kg (%) [1] [%]	Food intake reduction 24-48 h 30 nmol/kg (%) [1] [%]
12.3	12.3	12.3	45	0.044	CC[C@H](C)[C@H](NC(=O)[C@H](C)NC(=O)CNC(=O)[C@H](Cc1ccccc1)NC(=O)[C@H](CC(N)=O)NC(=O)[C@@H]1CCCN1C(=O)[C@H](CO)NC(=O)[C@H](CO)NC(=O)[C@H](Cc1c[nH]cn1)NC(=O)[C@H](CCCNC(=N)N)NC(=O)[C@H](CC(C)C)NC(=O)[C@H](Cc1ccccc1)NC(=O)[C@H](Cc1c[nH]cn1)NC(=O)[C@H](C)NC(=O)[C@H](CC(C)C)NC(=O)[C@H](CCCNC(=N)N)NC(=O)[C@H](CCC(N)=O)NC(=O)[C@@H](NC(=O)[C@H](C)NC(=O)[C@@H]1CSSC[C@H](NC(=O)[C@@H](N)CCCCNC(=O)CC[C@H](NC(=O)CCCCCCCCCCCCCCCCCCC(=O)O)C(=O)O)C(=O)N[C@@H](CC(N)=O)C(=O)N[C@@H]([C@@H](C)O)C(=O)N[C@@H](C)C(=O)N[C@@H]([C@@H](C)O)C(=O)N1)[C@@H](C)O)C(=O)N1CCC[C@H]1C(=O)N[C@@H](CO)C(=O)N[C@@H](CO)C(=O)N[C@H](C(=O)N1CCC[C@H]1C(=O)N[C@H](C(=O)NCC(=O)N[C@@H](CO)C(=O)N[C@@H](CC(N)=O)C(=O)N[C@H](C(=O)N[C@@H](Cc1ccc(O)cc1)C(N)=O)[C@@H](C)O)C(C)C)[C@@H](C)O [Example 62] (H-K([γGlu-C20 diacid])CNTATCATQRLAHFLRHSSPNFGAIPSSTPVGSNTY-NH2; disulfide 2-7; N-terminus assumed)	62	18
10.9	10.9	10.9	45	–	CC[C@H](C)[C@H](NC(=O)[C@H](C)NC(=O)CNC(=O)[C@H](Cc1ccccc1)NC(=O)[C@H](CC(N)=O)NC(=O)[C@@H]1CCCN1C(=O)[C@H](CO)NC(=O)[C@H](CO)NC(=O)[C@H](Cc1c[nH]cn1)NC(=O)[C@H](CCCNC(=N)N)NC(=O)[C@H](CC(C)C)NC(=O)[C@H](Cc1ccccc1)NC(=O)[C@H](Cc1c[nH]cn1)NC(=O)[C@H](C)NC(=O)[C@H](CC(C)C)NC(=O)[C@H](CCCNC(=N)N)NC(=O)[C@H](CCC(N)=O)NC(=O)[C@@H](NC(=O)[C@H](C)NC(=O)[C@@H]1CSSC[C@H](NC(=O)[C@@H](N)CCCCNC(=O)COCCOCCNC(=O)CC[C@H](NC(=O)CCCCCCCCCCCCCCCCCCC(=O)O)C(=O)O)C(=O)N[C@@H](CC(N)=O)C(=O)N[C@@H]([C@@H](C)O)C(=O)N[C@@H](C)C(=O)N[C@@H]([C@@H](C)O)C(=O)N1)[C@@H](C)O)C(=O)N1CCC[C@H]1C(=O)N[C@@H](CO)C(=O)N[C@@H](CO)C(=O)N[C@H](C(=O)N1CCC[C@H]1C(=O)N[C@H](C(=O)NCC(=O)N[C@@H](CO)C(=O)N[C@@H](CC(N)=O)C(=O)N[C@H](C(=O)N[C@@H](Cc1ccc(O)cc1)C(N)=O)[C@@H](C)O)C(C)C)[C@@H](C)O [Example 61] (H-K([AEEA-γGlu-C20 diacid])CNTATCATQRLAHFLRHSSPNFGAIPSSTPVGSNTY-NH2; disulfide 2-7 (inferred))	53	18
9.2	9.2	9.2	40	0.22	CC[C@H](C)[C@H](NC(=O)[C@H](C)NC(=O)CNC(=O)[C@H](Cc1ccccc1)NC(=O)[C@H](CC(N)=O)NC(=O)[C@@H]1CCCN1C(=O)[C@H](CO)NC(=O)[C@H](CO)NC(=O)[C@H](Cc1c[nH]cn1)NC(=O)[C@H](CCCNC(=N)N)NC(=O)[C@H](CC(C)C)NC(=O)[C@H](Cc1ccccc1)NC(=O)[C@H](CC(N)=O)NC(=O)[C@H](C)NC(=O)[C@H](CC(C)C)NC(=O)[C@H](CCCNC(=N)N)NC(=O)[C@H](CCC(N)=O)NC(=O)[C@@H](NC(=O)[C@H](C)NC(=O)[C@@H]1CSSC[C@H](NC(=O)[C@H](CCCCN)NC(=O)CC[C@H](NC(=O)CCCCCCCCCCCCCCCCCCC(=O)O)C(=O)O)C(=O)N[C@@H](CC(N)=O)C(=O)N[C@@H]([C@@H](C)O)C(=O)N[C@@H](C)C(=O)N[C@@H]([C@@H](C)O)C(=O)N1)[C@@H](C)O)C(=O)N1CCC[C@H]1C(=O)N[C@@H](CO)C(=O)N[C@@H](CO)C(=O)N[C@H](C(=O)N1CCC[C@H]1C(=O)N[C@H](C(=O)NCC(=O)N[C@@H](CO)C(=O)N[C@@H](CCC(=O)O)C(=O)N[C@H](C(=O)N[C@@H](Cc1ccc(O)cc1)C(N)=O)[C@@H](C)O)C(C)C)[C@@H](C)O [Example 28] ({C20 diacid-γGlu}-KCNTATCATQRLANFLRHSSPNFGAIPSSTPVGSETY-NH2; disulfide 2-7 (inferred))	49	38

Further lines, the compound ahead of its results:

SMILES	Ratio hCT/hAmylin funct. [2, 4]	Ratio hCT/hAmylin funct. [2, 5]	Ratio hCT/hAmylin funct. [2, 6]	ThT pH 4.0 lag time (h) [3] [h]	EC50 [2] [nM]	Food intake reduction 0-24 h 30 nmol/kg (%) [1] [%]	Food intake reduction 24-48 h 30 nmol/kg (%) [1] [%]
CC[C@H](C)[C@H](NC(=O)[C@H](C)NC(=O)CNC(=O)[C@H](Cc1ccccc1)NC(=O)[C@H](CC(N)=O)NC(=O)[C@@H]1CCCN1C(=O)[C@H](CO)NC(=O)[C@H](CO)NC(=O)[C@H](Cc1c[nH]cn1)NC(=O)[C@H](CCCNC(=N)N)NC(=O)[C@H](CC(C)C)NC(=O)[C@H](Cc1ccccc1)NC(=O)[C@H](CCC(=O)O)NC(=O)[C@H](C)NC(=O)[C@H](CC(C)C)NC(=O)[C@H](CCCNC(=N)N)NC(=O)[C@H](CCC(N)=O)NC(=O)[C@@H](NC(=O)[C@H](C)NC(=O)[C@@H]1CSSC[C@H](NC(=O)[C@@H](N)CCCCNC(=O)CC[C@H](NC(=O)CC[C@H](NC(=O)CCCCCCCCCCCCCCCCCCC(=O)O)C(=O)O)C(=O)O)C(=O)N[C@@H](CC(N)=O)C(=O)N[C@@H]([C@@H](C)O)C(=O)N[C@@H](C)C(=O)N[C@@H]([C@@H](C)O)C(=O)N1)[C@@H](C)O)C(=O)N1CCC[C@H]1C(=O)N[C@@H](CO)C(=O)N[C@@H](CO)C(=O)N[C@H](C(=O)N[C@@H](CC(N)=O)C(=O)N[C@H](C(=O)NCC(=O)N[C@@H](CCCNC(=N)N)C(=O)N[C@@H](CC(N)=O)C(=O)N[C@H](C(=O)N[C@@H](Cc1ccc(O)cc1)C(N)=O)[C@@H](C)O)C(C)C)[C@@H](C)O [Example 88] (H-K([γGlu-γGlu-C20 diacid])CNTATCATQRLAEFLRHSSPNFGAIPSSTNVGRNTY-NH2; disulfide 2-7)	8.5	8.5	8.5	45	–	31	15
CC[C@H](C)[C@H](NC(=O)[C@H](C)NC(=O)CNC(=O)[C@H](Cc1ccccc1)NC(=O)[C@H](CC(N)=O)NC(=O)[C@@H]1CCCN1C(=O)[C@H](CO)NC(=O)[C@H](CO)NC(=O)[C@H](Cc1c[nH]cn1)NC(=O)[C@H](CCCNC(=N)N)NC(=O)[C@H](CC(C)C)NC(=O)[C@H](Cc1ccccc1)NC(=O)[C@H](CC(N)=O)NC(=O)[C@H](C)NC(=O)[C@H](CC(C)C)NC(=O)[C@H](CCCNC(=N)N)NC(=O)[C@H](CCC(N)=O)NC(=O)[C@@H](NC(=O)[C@H](C)NC(=O)[C@@H]1CSSC[C@H](NC(=O)[C@@H](N)CCCCNC(=O)COCCOCCNC(=O)CC[C@H](NC(=O)CCCCCCCCCCCCCCCCCCC(=O)O)C(=O)O)C(=O)N[C@@H](CC(N)=O)C(=O)N[C@@H]([C@@H](C)O)C(=O)N[C@@H](C)C(=O)N[C@@H]([C@@H](C)O)C(=O)N1)[C@@H](C)O)C(=O)N1CCC[C@H]1C(=O)N[C@@H](CO)C(=O)N[C@@H](CO)C(=O)N[C@H](C(=O)N[C@@H](CC(N)=O)C(=O)N[C@H](C(=O)NCC(=O)N[C@@H](CO)C(=O)N[C@@H](CCCNC(=N)N)C(=O)N[C@H](C(=O)N[C@@H](Cc1ccc(O)cc1)C(N)=O)[C@@H](C)O)C(C)C)[C@@H](C)O [Example 38]	–	–	–	27	–	47	0
